Species: Rattus norvegicus
Assay: DrugMatrix - Regimen: Daily Repeat
Format: toxicity, organism-based, Sprague-Dawley
Set-up: regimen Daily Repeat, gender Male, age 6-8 weeks
Conditions: in vivo, po, route oral GAVAGE, vehicle 100 % WATER; for ABSOLUTE BASOPHIL / ABSOLUTE EOSINOPHIL / ABSOLUTE LYMPHOCYTE / ABSOLUTE MONOCYTE / ABSOLUTE SEGMENTED NEUTROPHIL / BASOPHIL / EOSINOPHIL / ERYTHROCYTE COUNT / HEMATOCRIT / HEMOGLOBIN / LEUKOCYTE COUNT / LYMPHOCYTE / MEAN CORPUSCULAR HEMOGLOBIN / MEAN CORPUSCULAR HEMOGLOBIN CONCENTRATION / MEAN CORPUSCULAR VOLUME / MONOCYTE / NEUTROPHIL / NUCLEATED RED BLOOD CELLS / PLATELET COUNT: tissue Blood; for ALANINE AMINOTRANSFERASE / ALBUMIN / ALKALINE PHOSPHATASE / ASPARTATE AMINOTRANSFERASE / BLOOD UREA NITROGEN / CARBON DIOXIDE / CHLORIDE / CHOLESTEROL / CREATINE PHOSPHOKINASE / CREATININE / GLUCOSE / LACTATE DEHYDROGENASE / LIPASE / PHOSPHORUS / POTASSIUM / SODIUM / TOTAL BILIRUBIN / TOTAL PROTEIN / URIC ACID: tissue Plasma
[1] = 0 mg/kg, 72 h, dose level Control, time 3 day
[2] = 0 mg/kg, 120 h, dose level Control, time 5 day
[3] = 900 mg/kg, 72 h, dose level Low, time 3 day

With `Clc1ccc(C(c2ccccc2Cl)C(Cl)Cl)cc1` (centres undefined) [MITOTANE] the “ABSOLUTE BASOPHIL” value [1] was 0 CELLS/uL, the “ABSOLUTE EOSINOPHIL” value [1] was 58.83 CELLS/uL and the “ABSOLUTE LYMPHOCYTE” value [1] was 11823.5 CELLS/uL. The “ABSOLUTE MONOCYTE” value [1] was 169 CELLS/uL, the “ABSOLUTE SEGMENTED NEUTROPHIL” value [1] was 815.33 CELLS/uL and the BASOPHIL [1] was 0%. For the same molecule, the EOSINOPHIL [1] was 0.5%, the “ERYTHROCYTE COUNT” value [1] was 5.52 x10E6/uL and the HEMATOCRIT [1] was 35.77%. For the same molecule, the HEMOGLOBIN [1] was 14.28 G/DL, the “LEUKOCYTE COUNT” value [1] was 12.87 x10E3/uL and the LYMPHOCYTE [1] was 91.67%. For the same molecule, the “MEAN CORPUSCULAR HEMOGLOBIN” value [1] was 25.92 pg, the “MEAN CORPUSCULAR HEMOGLOBIN CONCENTRATION” value [1] was 39.95 G/DL and the “MEAN CORPUSCULAR VOLUME” value [1] was 64.85 fL. For the same molecule, the MONOCYTE [1] was 1.33%, the NEUTROPHIL [1] was 6.5% and the “NUCLEATED RED BLOOD CELLS” value [1] was 0 /100WBC. The “PLATELET COUNT” value [1] was 1246.17 x10E3/uL, the “ALANINE AMINOTRANSFERASE” value [1] was 66 u/L and the ALBUMIN [1] was 4.25 G/DL. The “ALKALINE PHOSPHATASE” value [1] was 416 u/L, the “ASPARTATE AMINOTRANSFERASE” value [1] was 106.17 u/L and the “BLOOD UREA NITROGEN” value [1] was 12.67 mg/dL. For the same molecule, the “CARBON DIOXIDE” value [1] was 31.83 mmol/L, the CHLORIDE [1] was 102.5 MEQ/L and the CHOLESTEROL [1] was 69 mg/dL. The “CREATINE PHOSPHOKINASE” value [1] was 601.83 u/L, the CREATININE [1] was 0.18 mg/dL and the GLUCOSE [1] was 154.5 mg/dL. For the same molecule, the “LACTATE DEHYDROGENASE” value [1] was 301.83 u/L, the LIPASE [1] was 11.17 u/L and the PHOSPHORUS [1] was 12.08 mg/dL. The POTASSIUM [1] was 6.12 MEQ/L, the SODIUM [1] was 145.2 MEQ/L and the “TOTAL BILIRUBIN” value [1] was 0.17 mg/dL. The “TOTAL PROTEIN” value [1] was 6.1 G/DL, the “URIC ACID” value [1] was 1.57 mg/dL and the “ABSOLUTE BASOPHIL” value [2] was 0 CELLS/uL. For the same molecule, the “ABSOLUTE EOSINOPHIL” value [2] was 19.33 CELLS/uL, the “ABSOLUTE LYMPHOCYTE” value [2] was 12577.83 CELLS/uL and the “ABSOLUTE MONOCYTE” value [2] was 106.33 CELLS/uL. For the same molecule, the “ABSOLUTE SEGMENTED NEUTROPHIL” value [2] was 896.5 CELLS/uL, the BASOPHIL [2] was 0% and the EOSINOPHIL [2] was 0.17%. The “ERYTHROCYTE COUNT” value [2] was 5.84 x10E6/uL, the HEMATOCRIT [2] was 36.88% and the HEMOGLOBIN [2] was 14.48 G/DL. For the same molecule, the “LEUKOCYTE COUNT” value [2] was 13.6 x10E3/uL, the LYMPHOCYTE [2] was 92.17% and the “MEAN CORPUSCULAR HEMOGLOBIN” value [2] was 24.85 pg. The “MEAN CORPUSCULAR HEMOGLOBIN CONCENTRATION” value [2] was 39.3 G/DL, the “MEAN CORPUSCULAR VOLUME” value [2] was 63.23 fL and the MONOCYTE [2] was 0.83%. For the same molecule, the NEUTROPHIL [2] was 6.83%, the “NUCLEATED RED BLOOD CELLS” value [2] was 0 /100WBC and the “PLATELET COUNT” value [2] was 1223.5 x10E3/uL. For the same molecule, the “ALANINE AMINOTRANSFERASE” value [2] was 55.33 u/L, the ALBUMIN [2] was 4.08 G/DL and the “ALKALINE PHOSPHATASE” value [2] was 355.5 u/L. For the same molecule, the “ASPARTATE AMINOTRANSFERASE” value [2] was 87.67 u/L, the “BLOOD UREA NITROGEN” value [2] was 15.33 mg/dL and the “CARBON DIOXIDE” value [2] was 33.83 mmol/L. For the same molecule, the CHLORIDE [2] was 99.67 MEQ/L, the CHOLESTEROL [2] was 72.17 mg/dL and the “CREATINE PHOSPHOKINASE” value [2] was 268.33 u/L. The CREATININE [2] was 0.15 mg/dL, the GLUCOSE [2] was 152.5 mg/dL and the “LACTATE DEHYDROGENASE” value [2] was 212.67 u/L. The LIPASE [2] was 10.83 u/L, the PHOSPHORUS [2] was 11.65 mg/dL and the POTASSIUM [2] was 6.73 MEQ/L. For the same molecule, the SODIUM [2] was 142.43 MEQ/L, the “TOTAL BILIRUBIN” value [2] was 0.23 mg/dL and the “TOTAL PROTEIN” value [2] was 6.07 G/DL. The “URIC ACID” value [2] was 1.7 mg/dL, the “ABSOLUTE BASOPHIL” value [3] was 0 CELLS/uL and the “ABSOLUTE EOSINOPHIL” value [3] was 0 CELLS/uL. For the same molecule, the “ABSOLUTE LYMPHOCYTE” value [3] was 16524 CELLS/uL, the “ABSOLUTE MONOCYTE” value [3] was 175 CELLS/uL and the “ABSOLUTE SEGMENTED NEUTROPHIL” value [3] was 1001 CELLS/uL. For the same molecule, the BASOPHIL [3] was 0%, the EOSINOPHIL [3] was 0% and the “ERYTHROCYTE COUNT” value [3] was 5.49 x10E6/uL. For the same molecule, the HEMATOCRIT [3] was 34.53%, the HEMOGLOBIN [3] was 13.73 G/DL and the “LEUKOCYTE COUNT” value [3] was 17.7 x10E3/uL. For the same molecule, the LYMPHOCYTE [3] was 93.33%, the “MEAN CORPUSCULAR HEMOGLOBIN” value [3] was 25.03 pg and the “MEAN CORPUSCULAR HEMOGLOBIN CONCENTRATION” value [3] was 39.8 G/DL. For the same molecule, the “MEAN CORPUSCULAR VOLUME” value [3] was 62.9 fL, the MONOCYTE [3] was 1% and the NEUTROPHIL [3] was 5.67%. The “NUCLEATED RED BLOOD CELLS” value [3] was 0 /100WBC, the “PLATELET COUNT” value [3] was 1289.67 x10E3/uL and the “ALANINE AMINOTRANSFERASE” value [3] was 54 u/L. The ALBUMIN [3] was 4.23 G/DL, the “ALKALINE PHOSPHATASE” value [3] was 331.33 u/L and the “ASPARTATE AMINOTRANSFERASE” value [3] was 74.67 u/L. For the same molecule, the “BLOOD UREA NITROGEN” value [3] was 13 mg/dL, the “CARBON DIOXIDE” value [3] was 33.67 mmol/L and the CHLORIDE [3] was 101.67 MEQ/L. For the same molecule, the CHOLESTEROL [3] was 70.33 mg/dL, the “CREATINE PHOSPHOKINASE” value [3] was 271 u/L and the CREATININE [3] was 0.45 mg/dL. For the same molecule, the GLUCOSE [3] was 144.67 mg/dL, the “LACTATE DEHYDROGENASE” value [3] was 135 u/L and the LIPASE [3] was 12.67 u/L. For the same molecule, the PHOSPHORUS [3] was 12.8 mg/dL, the POTASSIUM [3] was 6.89 MEQ/L and the SODIUM [3] was 145.93 MEQ/L. The “TOTAL BILIRUBIN” value [3] was 0.1 mg/dL, the “TOTAL PROTEIN” value [3] was 6.03 G/DL and the “URIC ACID” value [3] was 1.6 mg/dL.

Source: ChEMBL document CHEMBL3885881, “DrugMatrix”
